Target: rat mGlu2 (Rattus norvegicus (Rat), UniProt P31421)
Experiment: mGlu2 Ca2+ flux assay
Assay type: cell-based
Conditions: for IC50: Gα15 HEK293 cells stably expressing rat mGlu2, glutamate EC80, >10,000 = no plateau, >30,000 = no measurable activity; for rat mGlu2 Glu max / remaining activity at 30 µM: amplitude of response in the presence of 30 μM test compound as percentage of maximal response to glutamate; for remaining activity at 30 µM: read-out: rat mGlu2 Glu max
Procedure, shortened: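 Gα15 HEK293 cells stably expressing rat mGlu2, Fluo-4 loaded; compound added, then glutamate at EC20 after 2.3 min and EC80 afterward, calcium flux read as F/F0. Peak amplitude around EC80 addition normalized to glutamate max; IC50 by unconstrained 4-parameter fit, top concentration 30 μM.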

rat mGlu2, sequence (P31421 19-872): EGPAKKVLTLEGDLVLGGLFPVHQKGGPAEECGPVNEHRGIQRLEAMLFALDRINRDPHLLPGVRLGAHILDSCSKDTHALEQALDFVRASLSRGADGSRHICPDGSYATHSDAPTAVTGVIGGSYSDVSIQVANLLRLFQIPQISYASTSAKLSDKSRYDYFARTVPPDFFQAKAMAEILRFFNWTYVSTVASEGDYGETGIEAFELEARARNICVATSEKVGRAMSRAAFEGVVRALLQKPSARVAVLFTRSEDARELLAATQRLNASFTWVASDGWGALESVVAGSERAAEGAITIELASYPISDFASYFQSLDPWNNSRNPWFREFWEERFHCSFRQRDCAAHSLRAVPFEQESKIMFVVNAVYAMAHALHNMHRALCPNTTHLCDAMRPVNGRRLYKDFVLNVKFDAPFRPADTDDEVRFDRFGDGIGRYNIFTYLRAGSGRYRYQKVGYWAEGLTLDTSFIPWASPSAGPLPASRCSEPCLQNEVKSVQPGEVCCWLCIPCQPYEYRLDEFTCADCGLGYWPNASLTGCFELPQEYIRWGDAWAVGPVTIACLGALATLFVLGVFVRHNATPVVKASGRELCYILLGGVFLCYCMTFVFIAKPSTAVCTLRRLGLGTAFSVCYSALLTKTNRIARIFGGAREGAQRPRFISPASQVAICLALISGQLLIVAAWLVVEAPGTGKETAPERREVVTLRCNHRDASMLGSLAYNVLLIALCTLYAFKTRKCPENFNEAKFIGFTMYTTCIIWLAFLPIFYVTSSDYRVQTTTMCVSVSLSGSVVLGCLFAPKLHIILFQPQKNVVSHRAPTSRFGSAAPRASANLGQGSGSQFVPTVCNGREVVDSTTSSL

| SMILES | IC50 [µM] | rat mGlu2 Glu max | remaining activity at 30 µM [%] |
| --- | --- | --- | --- |
| NC(=O)c1cc(-c2ccc(F)cc2)c(OCCOc2cncc(F)c2)cn1 [Compound 112] | 0.827 | 0.05% |  |
| NC(=O)c1cc(-c2ccc(F)cc2)c(OCCOc2ccc(F)nc2)cn1 [Compound 113] | 0.502 | 1.38 (n = 2) % |  |
| Cc1ccc(OCCOc2cnc(C(N)=O)cc2-c2ccc(F)cc2)cn1 [Compound 114] | 0.738 | 1.80% |  |
| NC(=O)c1cc(-c2ccc(F)cc2)c(OCCOc2ccc(C(F)(F)F)nc2)cn1 [Compound 115, 4-(4-fluorophenyl)-5-(2-((6-(trifluoromethyl)pyridin-3-yl)oxy)ethoxy)picolinamide] | 1.31 |  | 3.64 |
| NC(=O)c1cc(-c2ccc(F)cc2)c(OCCOc2ccnc(C(F)(F)F)c2)cn1 [Compound 116, 4-(4-fluorophenyl)-5-(2-((2-(trifluoromethyl)pyridin-4-yl)oxy)ethoxy)picolinamide] | 0.242 ± 0.083 |  | 1.51 ± 0.16 |
| NC(=O)c1cc(-c2ccc(F)cc2)c(OCCOc2ccnc(F)c2)cn1 [Compound 117, 4-(4-fluorophenyl)-5-(2-((2-fluoropyridin-4-yl)oxy)ethoxy)picolinamide] | 0.615 |  | 1.02 |
| Cc1cc(OCCOc2cnc(C(N)=O)cc2-c2ccc(F)cc2)ccn1 [Compound 118, 4-(4-fluorophenyl)-5-(2-((2-methylpyridin-4-yl)oxy)ethoxy)picolinamide] | 0.41 |  | 1.16 |
| Cc1ncc(OCCOc2cnc(C(N)=O)cc2-c2ccc(F)cc2)cn1 [Compound 119, 4-(4-fluorophenyl)-5-(2-((2-methylpyrimidin-5-yl)oxy)ethoxy)picolinamide] | > 10 |  | 20.3 |
| CC(COc1ccnc(C(F)(F)F)c1)Oc1cnc(C(N)=O)cc1-c1ccc(F)cc1 (stereo not shown) [Compound 120, 4-(4-fluorophenyl)-5-((1-((2-(trifluoromethyl)pyridin-4-yl)oxy)propan-2-yl)oxy)picolinamide] | 0.483 |  | 1.72 |
| Cc1ccc(OC(C)COc2cnc(C(N)=O)cc2-c2ccc(F)cc2)cn1 (stereo not shown) [Compound 121, 4-(4-fluorophenyl)-5-(2-((6-methylpyridin-3-yl)oxy)propoxy)picolinamide] | 2.13 |  | 1.66 |
| Cc1ncc(OC(C)COc2cnc(C(N)=O)cc2-c2ccc(F)cc2)cn1 (stereo not shown) [Compound 122, 4-(4-fluorophenyl)-5-(2-((2-methylpyrimidin-5-yl)oxy)propoxy)picolinamide] | > 10 |  | 8.04 |
| CC(COc1cnc(C(N)=O)cc1-c1ccc(F)cc1)Oc1cccnc1 (stereo not shown) [Compound 123, 4-(4-fluorophenyl)-5-(2-(pyridin-3-yloxy)propoxy)picolinamide] | 1.51 |  | 0.37 |
| CC(COc1cnc(C(N)=O)cc1-c1ccc(F)cc1)Oc1ccnc(C(F)(F)F)c1 (stereo not shown) [Compound 124, 4-(4-fluorophenyl)-5-(2-((2-(trifluoromethyl)pyridin-4-yl)oxy)propoxy)picolinamide] | 0.835 |  | 0.75 |
| Cc1ncc(OCCCOc2cnc(C(N)=O)cc2-c2ccc(F)cc2)cn1 [Compound 125, 4-(4-fluorophenyl)-5-(3-((2-methylpyrimidin-5-yl)oxy)propoxy)picolinamide] | > 10 |  | 35.1 |
| NC(=O)c1cc(-c2ccc(F)cc2)c(OCCCOc2ccc(C(F)(F)F)nc2)cn1 [Compound 126] | 2.94 | 5.52% |  |
| NC(=O)c1cc(-c2ccc(F)cc2)c(OCCCOc2ccnc(C(F)(F)F)c2)cn1 [Compound 127, 4-(4-fluorophenyl)-5-(3-((2-(trifluoromethyl)pyridin-4-yl)oxy)propoxy)picolinamide] | 1.59 |  | 2.03 |
| NC(=O)c1cc(-c2ccc(F)cc2)c(OCCCOc2cccnc2)cn1 [Compound 128, 4-(4-fluorophenyl)-5-(3-(pyridin-3-yloxy)propoxy)picolinamide] | 3.78 |  | 2.52 |

From patent publication US10538491B2, “4,5-substituted picolinamide and picolinonitrile metabotropic glutamate receptor 2 negative allosteric modulators” (Vanderbilt University, priority 2015, dated 2020)
